Converted amounts (≈) assume the structure as drawn. No end group written: not given here.
What was measured:
Format in all cases: cell-based
[1] = system: Fusarium graminearum PH-1; details: for MIC, in-vitro antifungal activity against F. graminearum: F. graminearum PH-1, 48 hours; for F. graminearum PH-1 MIC Day1: MIC Day 1, 96-well plate, resazurin cell viability
Botrytis cinerea T4 = details: for MIC, in-vitro antifungal activity against B. cinerea: 48 hours
[2] = system: Zymoseptoria tritici IPO323

Compound	MIC, in-vitro antifungal activity against F. graminearum [1] [µM]	F. graminearum PH-1 MIC Day1 [1] [µM]	B. cinerea T4 MIC Day1 (Botrytis cinerea T4) [µM]	MIC, in-vitro antifungal activity against B. cinerea (Botrytis cinerea T4) [µM]	Z. tritici IPO323 MIC Day 1 [2] [µM]	Z. tritici IPO323 MIC Day 7 [2] [µM]	Z. tritici IPO323 MIC Day 14 [2] [µM]	MIC against Z. tritici on day 1 [2] [µM]	MIC against Z. tritici on day 7 [2] [µM]	MIC against Z. tritici on day 14 [2] [µM]
PD106.1.1: Eucalyptus grandis wild-type defensin SEQ ID NO: 645 with N-terminal alanine, expressed in Pichia pastoris (ANCAKPSKFYRGPCFNSISVKPCTQRCSQENWPIGVCTKDLRCECQRPC; cysteine pairing not given here; also: N-terminal alanine added, unclear whether it is the first A of the chain; listed as Eucalyptus grandis)	0.75	0.75	1	1	0.375	1.5	2.5	–	–	–
PD103.1.1: Eucalyptus grandis wild-type defensin SEQ ID NO: 633 with N-terminal alanine, expressed in Pichia pastoris (ATCRKPSMYFSGACFSRTNCQKACNREDWPNGKCLVGFKCFCQRPC; cysteine pairing not given here; also: N-terminal alanine added, unclear whether it is the first A of the chain; listed as Eucalyptus grandis)	–	2.5	1.75	–	1.25	1.25	3	–	–	–
PD117.1.1: Manihot esculenta wild-type defensin SEQ ID NO: 692 with N-terminal alanine, expressed in Pichia pastoris (RICVKPEPLAHCTETICTQFCIRKYGPPPGTVGKCNLPPGFCTCYHNC; N-terminal alanine added; listed as Manihot esculenta)	–	>12	>12	–	>12	>12	>12	–	–	–
PD125.1.1: wild-type defensin-like protein SEQ ID NO: 728 with N-terminal alanine, expressed in Pichia pastoris (VICPLESKRSKTWSGVCAQSKNCDKQCKTWERAKHGACHATYGKVLGVKACMHAGNK; N-terminal alanine added; listed as Prunus armeniaca)	–	8	10	–	3	7	9	–	–	–
PD124.1.1: Rubus argutus wild-type defensin SEQ ID NO: 723 with N-terminal alanine, expressed in Pichia pastoris (RICEVPSKTFIGLCFKDTNCIVRCRSEGYGYGKCSHFRRRCRCFKPCP; N-terminal alanine added; listed as Rubus argutus)	–	2	0.75	–	0.75	3.25	4	–	–	–
PD115.1.1: Lupinus albus wild-type defensin SEQ ID NO: 683 with N-terminal alanine, expressed in Pichia pastoris (NNCKYESNKFHGVCLSDTNCESVCQTEGFPFGKCDGVLPRTCVCKKPC; N-terminal alanine added; listed as Lupinus albus)	–	>12	>12	–	>12	>12	>12	–	–	–
PD108.1.1: Fragaria x anannasa wild-type defensin SEQ ID NO: 653 with N-terminal alanine, expressed in Pichia pastoris (KTCESPSAKFEGPCIMGSNCALTCQKEGHDGGFCRDFWLPKCFCTKPC; N-terminal alanine added; Fragaria X ananassa)	–	>12	>12	–	>12	>12	>12	–	–	–
PD96.1.1: Thlaspi arvense wild-type defensin SEQ ID NO: 603 with N-terminal alanine, expressed in Pichia pastoris (RMCESKSHEFKGFCTKWRICRDVCITEGFTDGGCHGVLRHCVCKKPCLLSN; N-terminal alanine; Thlaspi arvense)	0.75	0.75	6	–	2.5	10	>12	–	–	–
PD121.1.1: Setaria italica wild-type defensin SEQ ID NO: 711 with N-terminal alanine, expressed in Pichia pastoris (RHCLSQSHHFKGLCLSSSNCANVCRVERFPDGECQTTAGTRKCFCKRIC; N-terminal alanine added; listed as Setaria italica)	–	1.5	2	–	1	4	5	–	–	–
PD102.1.1: Cajanus cajan wild-type defensin SEQ ID NO: 628 with N-terminal alanine, expressed in Pichia pastoris (AVCSKPSTYFFGPCVRRSTCRRACSHENYPDGKCSRFLGKCICYKPCTT; cysteine pairing not given here; also: N-terminal alanine added, unclear whether it is the first A of the chain)	–	1.5	1.25	–	1	1.5	2.5	–	–	–
C[C@@H]1[C@H](O)[C@@H](C)/C=C/C=C/C=C/C=C/C=C/C=C/C=C/[C@H](O[C@@H]2O[C@H](C)[C@@H](O)[C@H](N)[C@@H]2O)C[C@@H]2O[C@](O)(C[C@@H](O)C[C@@H](O)[C@H](O)CC[C@@H](O)C[C@@H](O)CC(=O)O[C@H]1C)C[C@H](O)[C@H]2C(=O)O [Amphotericin-B, reference compound]	6 (≈ 5.54 µg/mL)	6	3	3 (≈ 2.77 µg/mL)	0.84	5.44	8.92	0.84 (≈ 0.776 µg/mL)	5.44 (≈ 5.03 µg/mL)	8.92 (≈ 8.24 µg/mL)
PD87.1.1: Raphanus sativus wild-type defensin SEQ ID NO: 560 with N-terminal alanine, expressed in Pichia pastoris (KLCQRPSGTWSGVCGNNNACKNQCIRLEKARHGSCNYVFPAHKCICYFPC; N-terminal alanine; listed as Raphanus sativus)	0.75	0.75	0.375	–	0.375	1.5	2.5	–	–	–

Source: patent publication US20240239854A1, “ANTIMICROBIAL PEPTIDES AND MODIFICATIONS THEREOF” (Donald Danforth Plant Science Center, priority 2022, published 2024)
